Measured values reported in PMC11239830, “Synthetic macrolides overcoming MLSBK-resistant pathogens” (Cell Discovery, 2024).
In brackets after ≈: the same amount, converted by molar mass. Like-named read-outs stand apart in the source and are kept apart here.

Key:
Experiment in all cases: MIC, broth microdilution
S. pneumoniae = format: cell-based, Streptococcus pneumoniae
Outline: (§1)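 Incubation ran for 16–20 h at 37 °C after setup per Clinical and Laboratory Standards Institute microdilution procedure. Growth was then observed to assign the MIC. Assays were replicated at least three times.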

S. pyogenes = format: cell-based, Streptococcus pyogenes
Outline: as §1

S. aureus = format: cell-based, Staphylococcus aureus
Outline: as §1

## CC[C@H]1OC(=O)[C@H](C)[C@@H](OC(=O)NCCCCCCC#Cc2ccc3c(=O)c(C(=O)O)cn(C)c3c2)[C@H](C)[C@@H](O[C@@H]2O[C@H](C)C[C@H](N(C)C)[C@H]2O)[C@](C)(OC)C[C@@H](C)C(=O)[C@H](C)[C@H]2NC(=O)O[C@@]21C [MCX-219]
S. pneumoniae; S. pneumoniae 07P390, c-ermB, listed as 88g
  MIC: 0.06 µg/mL (≈ 0.062 µM)
S. pneumoniae; S. pneumoniae 21C315, Clinical, c-ermB
  MIC: 0.016 µg/mL (≈ 0.0165 µM)
S. pneumoniae; S. pneumoniae 21D016, Clinical, c-ermB, mef
  MIC: 0.03 µg/mL (≈ 0.031 µM)
S. pneumoniae; S. pneumoniae 21D020, Clinical, c-ermB, mef
  MIC: 0.03 µg/mL (≈ 0.031 µM)
S. pneumoniae; S. pneumoniae 21M277, Clinical, c-ermB
  MIC: 0.25 µg/mL (≈ 0.258 µM)
S. pneumoniae; S. pneumoniae 21Q352, Clinical, i-MLSB
  MIC: ≤ 0.002 µg/mL
S. pneumoniae; S. pneumoniae 21Q353, Clinical, i-MLSB
  MIC: ≤ 0.002 µg/mL
S. pneumoniae; S. pneumoniae 21W257, Clinical, c-ermB, mef
  MIC: 0.016 µg/mL (≈ 0.0165 µM)
S. pneumoniae; S. pneumoniae 21X435, Clinical
  MIC: ≤ 0.002 µg/mL
S. pneumoniae; S. pneumoniae ATCC49619
  MIC: ≤ 0.002 µg/mL
S. pneumoniae; Streptococcus pneumoniae, ATCC49619, S. pneumoniae ATCC49619, Ery-S, read-out: MIC
  MIC: ≤ 0.008 µg/mL
S. pneumoniae; Streptococcus pneumoniae, S. pneumoniae 05O173, c-ermB, mef, read-out: MIC
  MIC: 2 µg/mL (≈ 2.07 µM)
S. pneumoniae; Streptococcus pneumoniae, S. pneumoniae 07P390, c-ermB, read-out: MIC
  MIC: 0.03 µg/mL (≈ 0.031 µM)
S. pneumoniae; Streptococcus pneumoniae, S. pneumoniae PU09, mef, read-out: MIC
  MIC: ≤ 0.008 µg/mL
S. pyogenes; S. pyogenes 01-968, Clinical, i-ermB
  MIC: ≤ 0.002 µg/mL
S. pyogenes; S. pyogenes 12-207, Clinical, mef
  MIC: 0.016 µg/mL (≈ 0.0165 µM)
S. pyogenes; S. pyogenes 21C303, Clinical, c-ermB
  MIC: 0.5 µg/mL (≈ 0.517 µM)
S. pyogenes; S. pyogenes 21D184, Clinical, c-ermB
  MIC: 0.5 µg/mL (≈ 0.517 µM)
S. pyogenes; S. pyogenes 21D199, Clinical, c-ermB
  MIC: 1 µg/mL (≈ 1.03 µM)
S. pyogenes; S. pyogenes 21D200, Clinical, c-ermB
  MIC: 0.25 µg/mL (≈ 0.258 µM)
S. pyogenes; S. pyogenes 21K003, Clinical, mef
  MIC: 0.06 µg/mL (≈ 0.062 µM)
S. pyogenes; S. pyogenes 21M063, Clinical, c-ermB
  MIC: 0.25 µg/mL (≈ 0.258 µM)
S. pyogenes; S. pyogenes 21W186, Clinical, c-ermTR
  MIC: 4 µg/mL (≈ 4.14 µM)
S. pyogenes; Streptococcus pyogenes, S. pyogenes 01-968, i-ermTR (Table S5), read-out: MIC
  MIC: ≤ 0.008 µg/mL
S. pyogenes; Streptococcus pyogenes, S. pyogenes 12-206, c-ermB (Table S5), read-out: MIC
  MIC: 0.12 µg/mL (≈ 0.124 µM)
S. pyogenes; Streptococcus pyogenes, S. pyogenes 12-206, c-ermTR, read-out: MIC
  MIC: 0.06 µg/mL (≈ 0.062 µM)
S. aureus; S. aureus 15B196, Clinical, MRSA, c-ermB
  MIC: 1 µg/mL (≈ 1.03 µM)
S. aureus; S. aureus 21B200, Clinical, MRSA, c-ermB
  MIC: 4 µg/mL (≈ 4.14 µM)
S. aureus; S. aureus 21B207, Clinical, MRSA, c-ermB
  MIC: 2 µg/mL (≈ 2.07 µM)
S. aureus; S. aureus 21B212, Clinical, MSSA, i-ermC
  MIC: 0.25 µg/mL (≈ 0.258 µM)
S. aureus; S. aureus 21C173, Clinical, MSSA, i-ermC
  MIC: 0.25 µg/mL (≈ 0.258 µM)
S. aureus; S. aureus 21C174, Clinical, MSSA, c-ermB
  MIC: 0.25 µg/mL (≈ 0.258 µM)
S. aureus; S. aureus 21C187, Clinical, MRSA, i-ermA
  MIC: 0.12 µg/mL (≈ 0.124 µM)
S. aureus; S. aureus 21D112, Clinical, MSSA, c-ermB
  MIC: 16 µg/mL (≈ 16.5 µM)
S. aureus; S. aureus 21D115, Clinical, MSSA, i-ermC
  MIC: 0.25 µg/mL (≈ 0.258 µM)
S. aureus; S. aureus 21F198, Clinical, MRSA, c-ermB
  MIC: 1 µg/mL (≈ 1.03 µM)
S. aureus; S. aureus 21F206, Clinical, MSSA, c-ermB
  MIC: 8 µg/mL (≈ 8.27 µM)
S. aureus; S. aureus 21F207, Clinical, MRSA, i-ermC
  MIC: 0.25 µg/mL (≈ 0.258 µM)
S. aureus; S. aureus 21K194, Clinical, MSSA, i-ermC
  MIC: 0.06 µg/mL (≈ 0.062 µM)
S. aureus; S. aureus 21N354, Clinical, MRSA, c-ermB
  MIC: 1 µg/mL (≈ 1.03 µM)
S. aureus; S. aureus 21P191, Clinical, MSSA, c-ermC
  MIC: 16 µg/mL (≈ 16.5 µM)
S. aureus; S. aureus 21P404, Clinical, MSSA, i-ermC
  MIC: 0.25 µg/mL (≈ 0.258 µM)
S. aureus; S. aureus 21P407, Clinical, MRSA, c-ermB
  MIC: 8 µg/mL (≈ 8.27 µM)
S. aureus; S. aureus 21Q253, Clinical, MRSA, c-ermB
  MIC: 1 µg/mL (≈ 1.03 µM)
S. aureus; S. aureus 21R216, Clinical, MSSA, c-ermC
  MIC: 16 µg/mL (≈ 16.5 µM)
S. aureus; S. aureus 21T141, Clinical, MRSA, c-ermB
  MIC: 1 µg/mL (≈ 1.03 µM)
S. aureus; S. aureus 21X388, Clinical, i-ermA (MRSA in Table S9, MSSA in Fig. 2a)
  MIC: 0.06 µg/mL (≈ 0.062 µM)
S. aureus; S. aureus 21Y223, Clinical, MRSA, i-ermC
  MIC: 0.25 µg/mL (≈ 0.258 µM)
S. aureus; S. aureus ATCC29213
  MIC: 0.12 µg/mL (≈ 0.124 µM)
S. aureus; S. aureus PU32, Clinical, MRSA, i-ermA
  MIC: 0.25 µg/mL (≈ 0.258 µM)
S. aureus; Staphylococcus aureus, MRSA, MRSA (13)
  MIC50: 1 µg/mL (≈ 1.03 µM)
